# Test results: patent publication US6511997B1, “Aminopyrazole derivatives” (Teikoku Hormone Mfg. Co., Ltd., priority 1998, dated 2003)
row,Structure (SMILES),melting point
1,"CN(C(=O)OC(C)(C)C)[C@@H](Cc1ccccc1)C(=O)Nc1n[nH]c(-c2ccc(F)cc2)c1-c1ccncc1 [Example 89, 3-(N′-Carbo-t-butoxy-N′-methyl-L-Phenylalanylamino)-5-(4-fluorophenyl)-4-(4-pyridyl)pyrazole]",232.4 to 233.1 °C
2,"O=C(Cc1ccccc1)Nc1n[nH]c(-c2ccc(F)cc2)c1-c1ccnc2ccccc12 [Example 10, 5-(4-Fluorophenyl)-4-(4-quinolyl)-3-phenylacetylaminopyrazole]",273.4 to 275.3 °C
3,"CCCn1nc(-c2ccc(F)cc2)c(-c2ccncc2)c1NC(=O)Cc1ccccc1 [Example 99, 3-(4-Fluorophenyl)-5-phenylacetylamino-1-propyl-4-(4-pyridyl)pyrazole]",176.5 to 178.5 °C
4,"COc1ccccc1CC(=O)Nc1c(-c2ccncc2)c(-c2ccc(F)cc2)nn1CCO [Example 104, 3-(4-fluorophenyl)-1-(2-hydroxyethyl)-5-(2-methoxyphenylacetylamino)-4-(4-pyridyl)pyrazole]",200.6 to 204.2 °C
5,"Cc1ccc(CC(=O)Nc2n[nH]c(-c3ccc(F)cc3)c2-c2ccncc2)cc1 [Example 7, 5-(4-Fluorophenyl)-3-(4-methylphenylacetylamino)-4-(4-pyridyl)pyrazole]",262.8 to 264.7 °C
6,"CCn1nc(-c2ccc(F)cc2)c(-c2ccncc2)c1NC(=O)Cc1ccccn1 [Example 100, 1-Ethyl-3-(4-fluorophenyl)-4-(4-pyridyl)-5-(2-pyridylacetylamino)pyrazole]",147.5 to 149.5 °C
7,"O=C(Cc1ccccc1Cl)Nc1n[nH]c(-c2ccc(F)cc2)c1-c1ccncc1 [Example 24, 3-(2-chlorophenylacetylamino)-5-(4-fluorophenyl)-4-(4-pyridyl)pyrazole]",238.8 to 240.1 °C
8,"Cn1nc(-c2ccc(F)cc2)c(-c2ccncc2)c1NC(=O)Cc1ccc(Cl)c(Cl)c1 [Example 37, 5-(3,4-Dichlorophenylacetylamino)-3-(4-fluorophenyl)-1-methyl-4-(4-pyridyl)pyrazole]",205.1 to 207 °C
9,"COc1cccc(CC(=O)Nc2c(-c3ccncc3)c(-c3ccc(F)cc3)nn2C)c1OC [Example 53, 5-(2,3-Dimethoxyphenylacetylamino)-3-(4-fluorophenyl)-1-methyl-4-(4-pyridyl)pyrazole]",185.4 to 193.4 °C
10,"Cn1nc(-c2ccc(F)cc2)c(-c2ccncc2)c1NC(=O)Cc1ccsc1 [Example 80, 3-(4-Fluorophenyl)-1-methyl-4-(4-pyridyl)-5-(3-thienylacetylamino)pyrazole]",151.9 to 154.6 °C
11,"O=C(Cc1cccc(Cl)c1)Nc1n[nH]c(-c2ccc(F)cc2)c1-c1ccncc1 [Example 25, 3-(3-Chlorophenylacetylamino)-5-(4-fluorophenyl)-4-(4-pyridyl)pyrazole]",249.7 to 250.8 °C
12,"C[C@H](NC(=O)OCc1ccccc1)C(=O)Nc1n[nH]c(-c2ccc(F)cc2)c1-c1ccncc1 [Example 84, 3-(N′-carbobenzoxy-L-alanylamino)-5-(4-fluorophenyl)-4-(4-pyridyl)pyrazole]",190 to 191.3 °C
13,"COc1cc(CC(=O)Nc2c(-c3ccncc3)c(-c3ccc(F)cc3)nn2C)cc(OC)c1OC [Example 54, 3-(4-Fluorophenyl)-1-methyl-4-(4-pyridyl)-5-(3,4,5-trimethoxyphenylacetylamino)pyrazole]",178.1 to 180.4 °C
14,"Cn1nc(-c2ccc(F)cc2)c(-c2ccncc2)c1NC(=O)Cc1cccc(F)c1 [Example 61, 3-(4-Fluorophenyl)-5-(3-fluorophenylacetylamino)-1-methyl-4-(4-pyridyl)pyrazole]",196.9 to 199.1 °C
15,"Cn1nc(-c2ccc(F)cc2)c(-c2ccncc2)c1NC(=O)Cc1ccc(O)cc1 [Example 95, 5-(4-hydroxyphenylacetylamino)-3-(4-fluorophenyl)-1-methyl-4-(4-pyridyl)pyrazole]",127.1 to 128.6 °C
16,"Cn1nc(-c2ccc(F)cc2)c(-c2ccncc2)c1NC(=O)Cc1cccc(N)c1 [Example 94, 5-(3-Aminophenylacetylamino)-3-(4-fluorophenyl)-1-methyl-4-(4-pyridyl)pyrazole]",110.6 to 119 °C
17,"CN(C(=O)Cc1ccc(F)cc1)c1c(-c2ccncc2)c(-c2ccc(F)cc2)nn1C [Example 125, 3-(4-Fluorophenyl)-5-[N-(4-fluorophenylacetyl)-N-methylamino]-1-methyl-4-(4-pyridyl)pyrazole]",124.1 to 125.6 °C
18,"CC(C)(C(=O)Nc1n[nH]c(-c2ccc(F)cc2)c1-c1ccncc1)c1ccccc1 [Example 33, 3-(α,α-Dimethylphenylacetylamino)-5-(4-fluorophenyl)-4-(4-pyridyl)pyrazole]",239.1 to 241.5 °C
19,"Cn1nc(-c2ccc(F)cc2)c(-c2ccncc2)c1NC(=O)Cc1ccc2c(c1)OCO2 [Example 43, 3-(4-Fluorophenyl)-1-methyl-5-(3,4-methylenedioxyphenylacetylamino)-4-(4-pyridyl)pyrazole]",113.6 to 116.5 °C
20,"CC(C)[C@H](NC(=O)OC(C)(C)C)C(=O)Nc1n[nH]c(-c2ccc(F)cc2)c1-c1ccncc1 [Example 87, 3-(N′-Carbo-t-butoxy-L-valylamino)-5-(4-fluorophenyl)-4-(4-pyridyl)pyrazole]",217.1 to 217.6 °C
21,"Cn1nc(-c2ccc(F)cc2)c(-c2ccncc2)c1NC(=O)Cc1cccc(C(F)(F)F)c1 [Example 72, 3-(4-Fluorophenyl)-1-methyl-4-(4-pyridyl)-5-(3-trifluoromethylphenylacetylamino)pyrazole]",193.4 to 195.8 °C
22,"Cn1nc(-c2ccc(F)c(Cl)c2)c(-c2ccncc2)c1NC(=O)Cc1ccc(F)cc1Cl [Example 112, 3-(3-Chloro-4-fluorophenyl)-5-(2-chloro-4-fluorophenylacetylamino)-1-methyl-4-(4-pyridyl)pyrazole]",162.8 to 163.9 °C
23,"Cn1nc(-c2ccc(F)cc2)c(-c2ccncc2)c1NC(=O)Cc1ccccc1Br [Example 57, 5-(2-Bromophenylacetylamino)-3-(4-fluorophenyl)-1-methyl-4-(4-pyridyl)pyrazole]",223.8 to 227.6 °C

# Second part, the molecule after the results:
row,melting point,Structure (SMILES)
1,242.7 to 244.5 °C,"Cn1nc(-c2ccc(F)cc2)c(-c2ccncc2)c1NC(=O)Cc1ccccc1C(F)(F)F [Example 68, 3-(4-Fluorophenyl)-1-methyl-4-(4-pyridyl)-5-(2-trifluoromethylphenylacetylamino)pyrazole]"
2,264.6 to 268.3 °C,"O=C(Cc1cccs1)Nc1n[nH]c(-c2ccc(F)cc2)c1-c1ccncc1 [Example 11, 5-(4-Fluorophenyl)-4-(4-pyridyl)-3-(2-thienylacetylamino)pyrazole]"
3,219 to 221.2 °C,"CCn1nc(-c2ccc(F)cc2)c(-c2ccncc2)c1NC(=O)Cc1ccccc1 [Example 97, 1-Ethyl-3-(4-fluorophenyl)-5-phenylacetylamino-4-(4-pyridyl)pyrazole]"
4,257.3 to 264.1 °C,"O=C(Cc1ccccc1)Nc1n[nH]c(-c2ccccc2)c1-c1ccncc1 [Example 9, 3-Phenylacetylamino-5-phenyl-4-(4-pyridyl)pyrazole]"
5,194.2 to 194.7 °C,"Cn1nc(-c2ccc(F)c(Cl)c2)c(-c2ccncc2)c1NC(=O)Cc1ccccc1 [Example 113, 3-(3-Chloro-4-fluorophenyl)-1-methyl-5-phenylacetylamino-4-(4-pyridyl)pyrazole]"
6,92.1 to 96.1 °C,"Cn1nc(-c2ccc(F)cc2)c(-c2ccncc2)c1NC(=O)C(F)c1ccccc1 (stereo not drawn) [Example 74, 3-(4-Fluorophenyl)-5-(α-fluorophenylacetylamino)-1-methyl-4-(4-pyridyl)pyrazole]"
7,211.2 to 212.4 °C,"Cc1cc(C)cc(CC(=O)Nc2c(-c3ccncc3)c(-c3ccc(F)cc3)nn2C)c1 [Example 50, 5-(3,5-Dimethylphenylacetylamino)-3-(4-fluorophenyl)-1-methyl-4-(4-pyridyl)pyrazole]"
8,239.9 to 242.5 °C,"Cn1nc(-c2ccc(F)cc2)c(-c2ccncc2)c1NC(=O)Cc1c(F)cccc1F [Example 46, 5-(2,6-Difluorophenylacetylamino)-3-(4-fluorophenyl)-1-methyl-4-(4-pyridyl)pyrazole]"
9,253.5 to 255.1 °C,"O=C(CCc1ccccc1)Nc1n[nH]c(-c2ccc(F)cc2)c1-c1ccncc1 [Example 2, 5-(4-Fluorophenyl)-3-(3-phenylpropionylamino)-4-(4-pyridyl)pyrazole]"
10,182.5 to 184.7 °C,"CSc1ccc(CC(=O)Nc2c(-c3ccncc3)c(-c3ccc(F)cc3)nn2C)cc1 [Example 71, 3-(4-Fluorophenyl)-1-methyl-5-(4-methylthiophenylacetyl-amino)-4-(4-pyridyl)pyrazole]"
11,142.9 to 144.2 °C,"COc1ccccc1CC(=O)Nc1c(-c2ccncc2)c(-c2ccc(F)cc2)nn1CCOCc1ccccc1 [Example 103, 1-(2-Benzyloxyethyl)-3-(4-fluorophenyl)-5-(2-methoxyphenylacetylamino)-4-(4-pyridyl)pyrazole]"
12,291.1 to 294 °C,"CC(C)C(=O)Nc1n[nH]c(-c2ccc(F)cc2)c1-c1ccncc1 [Example 18, 5-(4-Fluorophenyl)-3-isobutyrylamino-4-(4-pyridyl)pyrazole]"
13,175.8 to 178.1 °C,"COc1ccc(CC(=O)N(C)c2c(-c3ccncc3)c(-c3ccc(F)cc3)nn2C)cc1 [Example 126, 3-(4-Fluorophenyl)-1-methyl-5-[N-methyl-N-(4-methoxyphenylacetyl)amino]-4-(4-pyridyl)pyrazole]"
